Data on two substances can be found in patent US20200032163A1, “Method for the Virus Inactivation of a Preparation of Monoclonal Antibodies” (Laboratoire Francais du Fractionnement et des …, priority 2016, published 2020).

Data set [1] in a line: Adsorption of Triton X-100 by the multilayer film of the 75 mL flexible bag (HPLC). The data set is classed as physicochemical. Particulars: 120 minutes. How it is done: In parallel, a negative control was carried out, repeating the experiment in a 0.5 litre glass flask filled with 316 mL of a 1% Triton X-100® solution. […] Samples were taken after 0 and 120 minutes.
Data set [2] is described as follows: Distribution of the concentration of Triton X-100 in a 50 L bag (RP-HPLC). In kind it is physicochemical. Particulars: 1% Triton X-100 in purified water.
Data set [3] is described as follows: Adsorption of polysorbate 80 and TnBP by the multilayer film of the 75 mL flexible bag (HPLC).
Where [4] appears, read: Bag according to the invention, 30 min, 25±3° C.
The mark [5] stands for this setting: Bag according to the invention, 1 hour, 25±3° C.
Setting [6] is: Bag according to the invention, 2 hours, 25±3° C.

Regarding “polyethylene glycol tert-octylphenyl ether [Triton X-100®]”, the “reduction of the concentration of Triton X-100” value in data set [1] (0.5 litre glass flask (negative control), 1% solution, magnetic stirring) came out at 3.1%; in data set [1] (75 mL flexible bag, 1% (w/w) solution, orbital stirring, 20±5° C.), 5%. Besides, the “adsorption of the Triton X-100 by the bag” value in data set [1] (75 mL flexible bag, 1% (w/w) solution) was “no significant adsorption”. For the same substance, the “greatest difference observed between the lower and higher concentrations measured” value in data set [2] (0 to 120 minutes) amounted to 7.90%. For the same substance, the “difference in concentration of Triton X-100 between the upper part and the bottom of the bag” value in data set [2] (stirring 40 rpm) was 2.7%.
On to “polyethylene glycol monooleate [Polysorbate 80]”, for which, in data set [3] (75 mL flexible bag, 2 hours, 25±3° C.), the “adsorption by the bag” value was “no significant adsorption”. The “Polysorbate 80 Concentration” value in data set [3] (Bag according to the invention, 0 min, 25±3° C.) came to 11147 mg/L; in data set [3] (setting [4]) it was 11408 mg/L; in data set [3] (setting [5]), 11519 mg/L; in data set [3] (setting [6]) it was 11432 mg/L; in data set [3] (Glass flask (negative control), 30 min) it was 10374 mg/L. The “Polysorbate 80 Adsorption with respect to T0” value in data set [3] (setting [4]) is on record as −2.3%; in data set [3] (setting [5]), −3.3%; in data set [3] (setting [6]) it was −2.6%. In addition, in data set [3] (in the bag or in the glass flask), the “concentration after 2 hours of incubation” value is on record as “stable”.
